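Exposure lasted 48 hours, with cells grown in 96-well plates and compounds tested at five concentrations. TGI: total growth inhibition.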
What was measured:
Assay in all cases: growth of human tumour cells (NCI), 48 h
A549 NSCLC = tested on: A549 NSCLC
SNB-75 CNS = tested on: SNB-75 CNS
SN12C renal = tested on: SN12C renal
UO-31 renal = tested on: UO-31 renal
IGROV1 ovarian = tested on: IGROV1 ovarian
K-562 leukemia = tested on: K-562 leukemia
EKVX NSCLC = tested on: EKVX NSCLC
SF-295 CNS = tested on: SF-295 CNS
786-0 renal = tested on: 786-0 renal
SK-OV-3 ovarian = tested on: SK-OV-3 ovarian
NCI-H522 lung = tested on: NCI-H522 lung
NCI-H226 lung = tested on: NCI-H226 lung
OVCAR-4 ovarian = tested on: OVCAR-4 ovarian
OVCAR-5 ovarian = tested on: OVCAR-5 ovarian
SNB-19 CNS = tested on: SNB-19 CNS
SF-539 CNS = tested on: SF-539 CNS
HT29 colon = tested on: HT29 colon
HOP-62 NSCLC = tested on: HOP-62 NSCLC
DU-145 prostate = tested on: DU-145 prostate
KM12 colon = tested on: KM12 colon
LOX IMVI melanoma = tested on: LOX IMVI melanoma
M14 melanoma = tested on: M14 melanoma
RPMI-8226 leukemia = tested on: RPMI-8226 leukemia
OVCAR-3 ovarian = tested on: OVCAR-3 ovarian
MCF7 breast = tested on: MCF7 breast
MOLT-4 leukemia = tested on: MOLT-4 leukemia
A498 renal = tested on: A498 renal
UACC-257 melanoma = tested on: UACC-257 melanoma
TK-10 renal = tested on: TK-10 renal
U251 CNS = tested on: U251 CNS
SK-MEL-28 melanoma = tested on: SK-MEL-28 melanoma
HCT-116 colon = tested on: HCT-116 colon
UACC-62 melanoma = tested on: UACC-62 melanoma
HL-60(TB) leukemia = tested on: HL-60(TB) leukemia
T-47D breast = tested on: T-47D breast
SF-268 CNS = tested on: SF-268 CNS
SW-620 colon = tested on: SW-620 colon
PC-3 prostate = tested on: PC-3 prostate
HS 578T breast = tested on: HS 578T breast
ACHN renal = tested on: ACHN renal
HCT-15 colon = tested on: HCT-15 colon
NCI/ADR-RES ovarian = tested on: NCI/ADR-RES ovarian
BT-549 breast = tested on: BT-549 breast
HOP-92 NSCLC = tested on: HOP-92 NSCLC
SK-MEL-2 melanoma = tested on: SK-MEL-2 melanoma
NCI-H460 lung = tested on: NCI-H460 lung
SR leukemia = tested on: SR leukemia
MDA-MB-231 breast = tested on: MDA-MB-231 breast
MALME-3M melanoma = tested on: MALME-3M melanoma
OVCAR-8 ovarian = tested on: OVCAR-8 ovarian
MDA-N = tested on: MDA-N
MDA-MB-435 = tested on: MDA-MB-435
SK-MEL-5 melanoma = tested on: SK-MEL-5 melanoma
CAKI-1 renal = tested on: CAKI-1 renal
RXF 393 renal = tested on: RXF 393 renal
CCRF-CEM leukemia = tested on: CCRF-CEM leukemia
COLO 205 colon = tested on: COLO 205 colon
HCC-2998 colon = tested on: HCC-2998 colon
NCI-H23 lung = tested on: NCI-H23 lung

`CC(=O)c1c(O)cc(O)c(-c2c(C)cc(O)c3c2C(=O)c2cccc(O)c2C3=O)c1O` showed a TGI (A549 NSCLC) of 34.2 µM, a TGI (SNB-75 CNS) of 38.1 µM and a TGI (SN12C renal) of 36 µM. It also gave a TGI (UO-31 renal) of 27.9 µM, a TGI (IGROV1 ovarian) of 29.8 µM and a TGI (K-562 leukemia) of 62.6 µM. The TGI (EKVX NSCLC) was 31.9 µM, the TGI (SF-295 CNS) was 26.9 µM and the TGI (786-0 renal) was 31.7 µM. It also gave a TGI (SK-OV-3 ovarian) of 27.4 µM, a TGI (NCI-H522 lung) of 24.7 µM and a TGI (NCI-H226 lung) of 58.1 µM. It also gave a TGI (OVCAR-4 ovarian) of 28.5 µM, a TGI (OVCAR-5 ovarian) of 41.5 µM and a TGI (SNB-19 CNS) of 39.1 µM. For the same molecule, the TGI (SF-539 CNS) was 30.3 µM, the TGI (HT29 colon) was 31.5 µM and the TGI (HOP-62 NSCLC) was 40.5 µM. The TGI (DU-145 prostate) was 30.2 µM, the TGI (KM12 colon) was 33.5 µM and the TGI (LOX IMVI melanoma) was 27.4 µM. The TGI (M14 melanoma) was 51.4 µM, the TGI (RPMI-8226 leukemia) was 35.5 µM and the TGI (OVCAR-3 ovarian) was 56.2 µM. For the same molecule, the TGI (MCF7 breast) was 29.8 µM, the TGI (MOLT-4 leukemia) was 38.5 µM and the TGI (A498 renal) was 29.1 µM. It also gave a TGI (UACC-257 melanoma) of 40 µM, a TGI (TK-10 renal) of 35.6 µM and a TGI (U251 CNS) of 27.2 µM. It also gave a TGI (SK-MEL-28 melanoma) of 73.5 µM, a TGI (HCT-116 colon) of 30 µM and a TGI (UACC-62 melanoma) of 29.1 µM. The TGI (HL-60(TB) leukemia) was 79.7 µM, the TGI (T-47D breast) was 22.7 µM and the TGI (SF-268 CNS) was 36.8 µM. For the same molecule, the TGI (SW-620 colon) was 36.8 µM, the TGI (PC-3 prostate) was 30.6 µM and the TGI (HS 578T breast) was 34.6 µM. It also gave a TGI (ACHN renal) of 25.5 µM, a TGI (HCT-15 colon) of 28.6 µM and a TGI (NCI/ADR-RES ovarian) of 42.2 µM. The TGI (BT-549 breast) was 35.3 µM, the TGI (HOP-92 NSCLC) was 26.1 µM and the TGI (SK-MEL-2 melanoma) was 34.2 µM. For the same molecule, the TGI (NCI-H460 lung) was 31.7 µM, the TGI (SR leukemia) was 53.8 µM and the TGI (MDA-MB-231 breast) was 41.1 µM. For the same molecule, the TGI (MALME-3M melanoma) was 30.6 µM, the TGI (OVCAR-8 ovarian) was 49.5 µM and the TGI (MDA-N) was 30.8 µM. It also gave a TGI (MDA-MB-435) of 34.5 µM.
With `CCc1n[nH]c(=O)[nH]1` the TGI (A549 NSCLC) was over 100 µM, the TGI (SNB-75 CNS) was over 100 µM and the TGI (SN12C renal) was over 100 µM. It also gave a TGI (UO-31 renal) of over 100 µM, a TGI (IGROV1 ovarian) of over 100 µM and a TGI (K-562 leukemia) of over 100 µM. It also gave a TGI (EKVX NSCLC) of over 100 µM, a TGI (SF-295 CNS) of over 100 µM and a TGI (786-0 renal) of over 100 µM. The TGI (SK-OV-3 ovarian) was over 100 µM, the TGI (NCI-H522 lung) was over 100 µM and the TGI (OVCAR-5 ovarian) was over 100 µM. It also gave a TGI (SNB-19 CNS) of over 100 µM, a TGI (SF-539 CNS) of over 100 µM and a TGI (HT29 colon) of over 100 µM. For the same molecule, the TGI (HOP-62 NSCLC) was over 100 µM, the TGI (DU-145 prostate) was over 100 µM and the TGI (KM12 colon) was over 100 µM. It also gave a TGI (LOX IMVI melanoma) of over 100 µM, a TGI (M14 melanoma) of over 100 µM and a TGI (SK-MEL-5 melanoma) of over 100 µM. For the same molecule, the TGI (OVCAR-3 ovarian) was over 100 µM, the TGI (CAKI-1 renal) was over 100 µM and the TGI (MCF7 breast) was over 100 µM. For the same molecule, the TGI (MOLT-4 leukemia) was over 100 µM, the TGI (UACC-257 melanoma) was over 100 µM and the TGI (RXF 393 renal) was over 100 µM. For the same molecule, the TGI (TK-10 renal) was over 100 µM, the TGI (HCT-116 colon) was over 100 µM and the TGI (UACC-62 melanoma) was over 100 µM. For the same molecule, the TGI (T-47D breast) was over 100 µM, the TGI (SF-268 CNS) was over 100 µM and the TGI (PC-3 prostate) was over 100 µM. For the same molecule, the TGI (HS 578T breast) was over 100 µM, the TGI (CCRF-CEM leukemia) was over 100 µM and the TGI (ACHN renal) was over 100 µM. The TGI (HCT-15 colon) was over 100 µM, the TGI (NCI/ADR-RES ovarian) was over 100 µM and the TGI (BT-549 breast) was over 100 µM. For the same molecule, the TGI (COLO 205 colon) was over 100 µM, the TGI (HCC-2998 colon) was over 100 µM and the TGI (SK-MEL-2 melanoma) was over 100 µM. For the same molecule, the TGI (NCI-H460 lung) was over 100 µM, the TGI (SR leukemia) was over 100 µM and the TGI (MDA-MB-231 breast) was over 100 µM. It also gave a TGI (MALME-3M melanoma) of over 100 µM, a TGI (OVCAR-8 ovarian) of over 100 µM and a TGI (NCI-H23 lung) of over 100 µM. It also gave a TGI (MDA-N) of over 100 µM and a TGI (MDA-MB-435) of over 100 µM.

From PubChem BioAssay (NCI)
